As usually defined, the Kd is the free concentration of one partner at which half of the binding sites on the other are occupied at equilibrium, for simple one-to-one binding. Higher therefore signals a looser complex.

Where no end group is shown, it is not given here.

This test addresses T1, HLA-A*11:01 protein (Homo sapiens, UniProt P04439, A114D/D185E/E176A/F33Y/L180Q/S129P/T187R).
T1 construct: biotin (biotinylated)
The test can be described thus: Bio-Layer Interferometry (BLI) affinity test, Octet R8. The following applies: Octet R8, SSA sensors, peptides 100-3.125 µM in PBST (PBS+0.02%Tween20+1% DMSO), balance, binding, dissociation 60 s each. On the technique in general: BLI is a label-free optical method that tracks binding on a fibre tip over time.

FSTFKCYGL returned a Kd of 5.95 µM.

The sequence GLSPTKLNDL displayed a Kd of 319 µM.

In turn, KCYGLSPTK had a Kd of 23 µM.

On to SQCVNFTTR, for which the KD result is on record as “Non-binding”. In addition, the KD result (listed as 13[…]21) is reported as “not detected”.

The record behind these values is paper PMC9006954, “Computer-Based Immunoinformatic Analysis to Predict Candidate T-Cell Epitopes for SARS-CoV-2 Vaccine Design” (Frontiers in Immunology, 2022).
